Values quoted from earlier work in patent publication US20070281345A1, “Enzymatic Method of Making Aldehydes from Fatty Acids” (Archer-Daniels-Midland Company, priority 2006, published 2007).

Settings: AOCS Method Tg1a-67 (determined) or Cd1c-85 (calculated)

Row | SMILES | iodine value
1 | CCCCC/C=C\C/C=C\C/C=C\C/C=C\CCCC(=O)O [arachidonic acid] | greater than the iodine value of linoleic acid
2 | CCC=CCC=CCC=CCC=CCC=CCC=CCCC(=O)O [docosahexaenoic acid, 4,7,10,13,16,19-docosahexaenoic acid] | greater than the iodine value of linoleic acid
3 | CCC=CCC=CCC=CCC=CCC=CCCCC(=O)O [eicosapentaenoic acid, 5,8,11,14,17-eicosapentaenoic acid] | greater than the iodine value of linoleic acid
4 | CCCCC/C=C\C/C=C\CCCCCCCC(=O)O [linoleic acid] | 173
5 | CCCCCCCC/C=C\CCCCCCCC(=O)O [oleic acid] | 89
